Earlier results on one molecule are cited in patent US6444192B1, “Diagnostic imaging of lymph structures” (The Regents of the University of California, priority 1999, dated 2002).

The conditions of the data set: 3 to 5 mL in the breast mass and surrounding tissue.

Like-named read-outs stand apart in the source and are kept apart here.

On to `CCN(CC)c1ccc(C(=C2C=CC(=[N+](CC)CC)C=C2)c2cc(S(=O)(=O)[O-])ccc2S(=O)(=O)[O-])cc1.[Na+]` [isosulfan blue], for which the sentinel node detected is, setting by setting: (first 87 cases) 58%; (next 87 cases) 78%.
